The subject of data set [1] is mRNAs in J774.2 cells. The experiment in a line: Affymetrix microarray: mRNAs up- or down-regulated by Compounds A and B in LPS-stimulated macrophages. Type of data set: cell-based, murine. The following applies: 50 μg/ml compound + 100 ng/ml LPS, 24 hours, J774.2 only; for Numbers of mRNAs with levels significantly altered by both Compounds A and B, in the presence of LPS: Decreased: decreased at least 2-fold by both compounds; for Numbers of mRNAs with levels significantly altered by both Compounds A and B, in the presence of LPS: Increased: increased at least 2-fold by both compounds. The procedure: (§1) Two murine macrophage cell lines were used: J774.2 (gift from Peter Lambert, Aston University, UK), and RAW 264.7 (ATCC item number TIB-71). Cells were harvested from nearly confluent culture flasks and seeded into 6 well plates at a density of 5×10^6 cells well^−1 in a volume of 3 ml Dulbecco's modified essential medium supplemented with 10% fetal calf serum. After 2 hours, cells were exposed to the following conditions:
5) 50 μg/ml Compound A+100 ng/ml LPS (J774 cells only)
6) 50 μg/ml Compound B+100 ng/ml LPS (J774 cells only)
(§2) The tetracycline compounds were added 1.5 hours post seeding, thirty minutes before the addition of LPS. The plates were incubated at 37° C. at 5% CO2 in a humidified incubator.
(§3) 24 hours after incubation under experimental conditions, media was removed from the wells, and total RNA was purified from each sample using QIAGEN RNeasy® Mini columns. The manipulations which were then performed on the total RNA samples were as outlined in The Affymetrix® GeneChip® Expression Analysis technical manual, sections 2, chapter 1, entitled Eukaryotic Target Preparation. Briefly, RNA was reverse transcribed into double stranded cDNA with an oligo dT primer containing a T7 promoter. The product was then purified by phenol:chloroform:isoamyl extraction and ethanol precipitation, and then used in an […] to synthesize biotin-labelled antisense cRNA (Affymetrix controls of B. subtilis genes excised from pBluescript plasmid with Xho I digestion were added at this stage to control for correct translation and biotin incorporation). The cRNA was then cleaned using QIAGEN RNeasy® Mini columns, and the resulting cRNA solution fragmented using metal-induced hydrolysis.
Samples were prepared for hybridization with the Affymetrix murine genome chips U74AV2 according to the directions in the Affymetrix® GeneChip® Expression Analysis technical manual, sections 2, chapters 3 and 4, entitled Eukaryotic Target Hybridization and Eukaryotic Arrays: Washing Staining and Scanning. Briefly, 15 ug Fragmented cRNA was mixed with Affymetrix hybridization controls, herring sperm DNA, BSA, and concentrated hybridization buffer, boiled for 5 minutes, centrifuged at 14000×g for 5 minutes to obtain a precipitated-free solution, and hybridized with the array for 16 hours. […]
For J774.2 cells stimulated by LPS, two lists were generated, one of mRNAs which were increased at lease 2-fold by Compounds A and/or B, and one of mRNAs which were decreased at least 2-fold by Compounds A and/or B. In the case of mRNAs which were increased, the mRNAs had to be statistically ‘Present’ in the samples which contained Compounds A and/or B (‘Present’ as determined by the Affymetrix microarray suite software).

Data set [2] is described as follows: in vitro. Format: cell-based. The following applies: African green monkey (COS-1) and Chinese hamster (CHO-K1). The procedure:
COS-1 and CHO-K1 cell suspensions were prepared, seeded into 96-well tissue culture treated black-walled microtiter plates (density determined by cell line), and incubated overnight at 37° C., in 5% CO2 and approximately 95% humidity. The following day, serial dilutions of drug were prepared under sterile conditions and transferred to cell plates. Cell/Drug plates were incubated under the above conditions for 24 hours. Following the incubation period, media/drug was aspirated and 50 μl of Resazurin (0.042 mg/ml in PBS w/Ca and Mg) was added. The plates were then incubated under the above conditions for 2 hours and then in the dark at room temperature for an additional 30 minutes. Fluorescence measurements were taken (excitation 535 nm, emission 590 nm). The IC50 (concentration of drug causing 50% growth inhibition) was then calculated.

The subject of data set [3] is mRNAs in J774.2 and RAW264.7 cells. The experiment in a line: Affymetrix microarray: mRNAs up- or down-regulated by minocycline in murine macrophage cell lines. Type of data set: cell-based. The following applies: 24 hours. The procedure: as §1
1) control (J774 cells on two separate occasions, and RAW 264.7 cells)
2) 50 μg/ml minocycline (J774 cells on two separate occasions, and RAW 264.7 cells)
3) 100 ng/ml LPS (J774 cells on two separate occasions, and RAW 264.7 cells)
4) 50 μg/ml minocycline+100 ng/ml LPS (J774 cells on two separate occasions, and RAW 264.7 cells)
as §2
as §3, with “hydrolysis. […]” for “hydrolysis.”
For both J774.2 and RAW264.7 cells, two lists were generated, one of mRNAs which were increased at lease 2-fold by minocycline, and one of mRNAs which were decreased at least 2-fold by minocycline. In the case of mRNAs which were increased, the mRNAs had to be statistically ‘Present’ in the samples which contained minocycline (‘Present’ as determined by the Affymetrix microarray suite software). […]
For both J774.2 and RAW264.7 cells stimulated by LPS, two lists were generated, one of mRNAs which were increased at lease 2-fold by minocycline, and one of mRNAs which were decreased at least 2-fold by minocycline. In the case of mRNAs which were increased, the mRNAs had to be statistically ‘Present’ in the samples which contained minocycline (‘Present’ as determined by the Affymetrix microarray suite software).

In general, IC50 refers to the concentration that gives 50% inhibition.

Structures are written as SMILES. Bounds are passed on as bounds.

For `CN(C)C1C(O)=C(C(N)=O)C(=O)[C@@]2(O)C(O)=C3C(=O)c4c(O)ccc(CNCC(C)(C)C)c4C[C@H]3C[C@@H]12` (stereo partly shown) [Compound A], in data set [1], the “Numbers of mRNAs with levels significantly altered by both Compounds A and B, in the presence of LPS: Decreased” value stood at 108; the “Numbers of mRNAs with levels significantly altered by both Compounds A and B, in the presence of LPS: Increased” value is given as 133.

With `C[C@H]1c2ccc(N3CCCCC3)c(O)c2C(=O)C2=C(O)[C@]3(O)C(=O)C(C(N)=O)=C(O)C(N(C)C)[C@@H]3[C@@H](O)[C@@H]21` (stereo partly shown) [Compound B], in data set [1], the “Numbers of mRNAs with levels significantly altered by both Compounds A and B, in the presence of LPS: Decreased” value amounted to 108; the “Numbers of mRNAs with levels significantly altered by both Compounds A and B, in the presence of LPS: Increased” value is 133.

In the case of `C[C@H]1c2cccc(O)c2C(=O)C2=C(O)[C@]3(O)C(=O)C(C(N)=O)=C(O)[C@@H](N(C)C)[C@@H]3[C@@H](O)[C@@H]21` [doxycycline], in data set [2], the IC50 at 24 h was over 25 µg/mL.

In the case of `CN(C)c1ccc(O)c2c1C[C@H]1C[C@H]3[C@H](N(C)C)C(O)=C(C(N)=O)C(=O)[C@@]3(O)C(O)=C1C2=O` [minocycline], the IC50 at 24 h in data set [2] was over 25 µg/mL. Further, the “Numbers of mRNAs with levels significantly altered by minocycline, in the presence of LPS: Decreased” value in data set [3] (50 μg/ml minocycline + 100 ng/ml LPS, decreased at least 2-fold, common to all three lists (J774.2 twice, RAW264.7)) was 9. Further, the “Numbers of mRNAs with levels significantly altered by minocycline, in the presence of LPS: Increased” value in data set [3] (50 μg/ml minocycline + 100 ng/ml LPS, increased at least 2-fold, common to all three lists (J774.2 twice, RAW264.7)) was 28. Further, the “Numbers of mRNAs with levels significantly altered by minocycline: Decreased” value in data set [3] (50 μg/ml minocycline, no LPS, decreased at least 2-fold, mRNAs common to all three lists (J774.2 twice, RAW264.7)) is given as 4. The “Numbers of mRNAs with levels significantly altered by minocycline: Increased” value in data set [3] (50 μg/ml minocycline, no LPS, increased at least 2-fold, mRNAs common to all three lists (J774.2 twice, RAW264.7)) is 21.

The values are drawn from US9562003B2, “Methods of using substituted tetracycline compounds to modulate RNA” (Paratek Pharmaceuticals, Inc., priority 2002, dated 2017).
